Experiment [1] relates to C57BL/6J mice. Put plainly: Disc angiogenesis system. The format is in vivo. The following applies: for crosssectional area of the disc covered with new vessels (neovascularization of the disc): systemic treatment via osmotic minipumps, median, control 54.9%. On the procedure:
Disc Angiogenesis System. A disc of polyvinyl alcohol sponge (Rippey, El Dorado Hills, Calif.), covered with nitrocellulose cell-impermeable filters (Millipore, Burlington, Mass.), allows capillaries to grow only through the rim of the disc. The randomized treatment for the 2-week study period was delivered via osmotic minipumps (0.25 μl/hr; Durect, Cupertino, Calif.). Those discs were subcutaneously implanted in the back of 10-week old C57BL/6J mice or in some experiments in the back of α7-nAChR-deficient (B6.129S7-Chrna7^trn1Bay) mice (n=6 per group; Jackson, Bar Harbor, Me.). Two weeks later, mice were anesthetized and infused with space-filling fluorescent microspheres (0.2 μm, Molecular Probes, Eugene, Oreg.) through the left ventricle of the heart. Both the area of the disc covered with perfused vessels and the vessel density were quantified. Heeschen et al. (2001) Nat Med 7:833-837; and Jang et al. (2000) Circulation 102:1414-1419 (3, 10) The α7-nAChR in growing vessels were identified by immunohistochemistry (Santa Cruz Biotechnology, Santa Cruz, Calif.). To verify the specificity of the staining, discs explanted from homozygous α7-nAChR^−/− mice were used as a negative control.
To determine if the nAChR are involved in the native angiogenesic response in vivo, we used the disc angiogenesis system. In the control group, 54.9% (95% CI 46.1-63.6) of the crosssectional area of the disc was covered with new vessels when the disc was removed three weeks after subcutaneous implantation. FIG. 1.

Experiment [2] has as its system HMVECs and HUVECs. The experiment in a line: In vitro Matrigel assay (capillary network / tube formation). Type of experiment: cell-based, human. How it is done:
In Vitro Matrigel Assay. Human umbilical vein endothelial cells (HUVEC) and human microvascular endothelial cells (HMVEC; up to 5th passage; Bio Whittaker, Walkersville, Md.) were grown in EGM-MV supplemented with 5% FBS, 0.5 ml hEGF, 0.2 ml hydrocortisone, 2.0 ml BBE, and 0.5 ml GA-1000 (Bio Whittaker). Four-well chamber slides were coated with growth factor enhanced Matrigel (Becton Dickinson, Bedford, Mass.) and equilibrated with basal medium. Kureishi et al. (2000) Nat Med 6:1004-1010. Cells were seeded on top of the gel at a density of 10^3 cells/well in fresh basal medium containing 5% FBS. After two hours, increasing concentrations of mecamylamine (10^−12 to 10^−4 M; Sigma, St. Louis, Mont.) or vehicle were added to the medium. Development of tube formation in the center of each well was investigated at 24, 48, and 72 hours. We studied critical steps in angiogenesis, such as migration and differentiation, using an in vitro model of angiogenesis with ECs forming a network of capillary-like structures. After seeding the cells on growth factor-enriched matrigel, HMVECs and HUVECs, respectively, manifested tube formation within 48 hours in response to control medium.

Experiment [3] deals with C57BL/6J mice. The experiment in a line: Murine model of hind limb ischemia. The format is in vivo. Conditions: for median diameter of collateral vessels / number of collateral vessels: ischemic limb; for median diameter of collateral vessels: control 0.12 mm; for number of collateral vessels: control 7.5. On the procedure:
Murine Model of Hind Limb Ischemia. In 10-week old C57BL/6J mice, the distal end of the external iliac artery and the deep and superficial femoral artery were ligated (n=8 animals per group). Mecamylamine was administered for three weeks by daily intramuscular injection. Serum VEGF levels were determined with a mouse VEGF ELISA kit (R&D System, Minneapolis, Minn.). Capillary density was determined in the adductor and semimembranous muscles. In 10 μm cryostat sections, cut transverse to the mid-belly of the muscle, capillaries were identified by monoclonal antibodies against CD31 (BD PharMingen, San Diego, Calif.) and myocytes were counterstained with eosin (Sigma). Capillary density for each section was determined in ten randomly selected fields and is expressed as a ratio of capillaries to myocytes.
To determine if nAChR play an important role in the setting of angiogenesis in response to ischemia, we employed the murine model of hind limb ischemia. After unilateral ligation of the superficial and deep femoral artery, we administered mecamylamine or vehicle by intramuscular injections into the ischemic hind limb on a daily basis for a period of three weeks. Animals (each group n=8) received 0, 0.05, or 0.5 μg/kg of mecamylamine. […] We achieved similar results when we administered mecamylamine systemically via osmotic minipumps (5.0 μg/kg; 0.24 (95% CI 0.19-0.28); P<0.001).
Accordingly, we identified collaterals by double staining for CD31 (ECs) and α-actin (SMCs) using confocal microscopy. The number of collaterals was quantified on cross-sections by identifying vascular lumen lined by CD31-positive endothelium, that were coated by an actin-positive vascular smooth muscle wall, with vessel diameters of at least 0.02 mm.

Experiment [4] concerns CD34+/Flk-1+ cells. The experiment in a line: FACS of endothelial progenitor cells in hind limb ischemia model. Type of experiment: in vivo, mice. The following applies: systemic administration. On the procedure: FACS. Fluorescence-activated cell sorting was used to identify the cellular population mobilized by ischemia and ischemia plus mecamylamine, respectively. At each time point (baseline, 3, 7, 14 days), blood was obtained from the right atrium. Bone marrow was isolated from bilateral femurs and tibias of each animal and incubated in HBSS (1% FCS) on ice. Peripheral blood and bone marrow cells were incubated with fluorescent-labeled antibodies and analyzed with a FACS-Vantage flow cytometer (Becton Dickinson, Franklin Lakes, N.J.). FITC-conjugated antibody against mouse CD34 and PE-conjugated antibody against mouse Flk-1 (BD PharMingen, San Diego, Calif.) were used as endothelial lineage markers. The analysis of CD34+ and Flk-1+ cells was performed after gating for monocyte size. Biotinylated antibodies against MAC-1 (BD PharMingen) conjugated to Avidin-Texas Red (BD PharMingen) were used as a monocyte/macrophage lineage marker after gating for monocyte cell size with the exclusion of granulocytes that were marked by Ly-6G GR-1 against mouse conjugated to APC (BD PharMingen). […] Data were analyzed using FloJo software (Becton Dickinson).
Table 1 presents the data, expressed as percentage of endothelial progenitor cells in bone marrow (BM) and peripheral blood (PB) before and after ligation of the femoral artery in the murine model of hind limb ischemia.

Experiment [5] concerns Lewis lung carcinoma cells. Put plainly: Lewis lung tumor model, subcutaneous. Type of experiment: in vivo, mice. How it is done:
(§1) Lewis Lung Tumor Model. A total of 10^6 Lewis lung carcinoma cells (ATCC, Manassas, Va.) were cultured in RPMI 1640 supplemented with 10% FBS. Cancer cells were subcutaneously injected into each flank or orthotopically introduced into the lung parenchyma via a limited skin incision without thoracotomy of 10-week old C57BL/6J wild type mice. Animals received mecamylamine (3 mg/kg) or vehicle via osmotic mini pumps. Mice injected subcutaneously with tumor cells were checked on a daily basis for the presence of a palpable tumor and tumor growth was measured with a gauge. Tumor size was calculated as the product of length×width×0.5 cm^3. When mice in any group were bearing tumors>1.5 cm^3, the experiment was stopped and all animals sacrificed for histological evaluation. Tumor vessels were identified by infusion of space-filling fluorescent microspheres (0.2 μm; Molecular Probes) via the left ventricle of the heart.
(§2) The previous studies indicate that nAChR play an important role in angiogenesis in a broad spectrum of experimental conditions. To determine if mecamylamine could influence tumor angiogenesis, we used the in vivo Lewis lung cancer model. […] This late decrease in tumor growth in the mecamylamine group corresponded with a reduced vascularization of the tumor tissue. […] In another experiment, we orthotopically implanted Lewis lung cancer cells into the lung parenchyma. Larger tumors in the control group required discontinuation of the experiment after 17 days (tumor volume of 0.62 cm^3 (95% CI 0.37-0.85) versus 0.45 cm^3 (95% CI 0.28-0.66); P<0.001).

Experiment [6] has as its system Lewis lung carcinoma cells. The experiment in a line: Lewis lung tumor model, orthotopic implantation into lung parenchyma. The format is in vivo, mice. How it is done: as §1, §2
The test system of experiment [7] is Lewis lung cancer cells. The experiment in a line: Cell culture of Lewis lung cancer cells: proliferation and apoptosis during hypoxia. The format is cell-based. The source says:
In subsequent cell culture experiments, we investigated whether this reduced tumor growth may also be related to a direct anti-proliferative effect of mecamylamine on the cancer cells. […] We also investigated the effects of increasing mecamylamine concentrations on the percentage of cells undergoing apoptosis during hypoxia using flow cytometry.

For `C[N+](C)(C)CCCCCC[N+](C)(C)C` [hexamethonium], the “crosssectional area of the disc covered with new vessels (neovascularization of the disc)” value in experiment [1] worked out at 11.5%.

Take `CNC1(C)C2CCC(C2)C1(C)C` (stereo not shown) [mecamylamine]: the “reversibility of effect on network formation” value in experiment [2] (10^−6 M, treatment stopped after 36 hours, network-like structures at 72 hours) is reported as “reversible”. Also, the “network formation (tube formation)” value in experiment [2] (medium supplemented with 10^−4 to 10^−12 M, growth factor-enriched matrigel) is reported as “network formation was inhibited”. In addition, the “angiogenesis in vivo (FIG. 1)” value in experiment [1] (disc angiogenesis system) is recorded as “inhibits angiogenesis in vivo”. In experiment [1], the “crosssectional area of the disc covered with new vessels (neovascularization of the disc)” value was 14.3%. Besides, the “capillary density (angiogenic response)” value in experiment [3] (0.5 μg/kg daily intramuscular injection into ischemic hind limb, 3 weeks, control 0.45) is recorded as 0.26 capillaries/myocyte; in experiment [3] (systemically via osmotic minipumps, 5.0 μg/kg), 0.24 capillaries/myocyte. Besides, the “median diameter of collateral vessels” value in experiment [3] (high dose) was determined as 0.07 mm; in experiment [3] (low dose), 0.09 mm. For the same compound, the “number of collateral vessels” value in experiment [3] (high dose) worked out at 6.2; in experiment [3] (low dose), 7.1. Further, in experiment [3] (murine model of hind limb ischemia), the “capillary density compared to control (FIG. 3)” value was “decreased capillary density in a dose-dependent fashion”. In addition, the “number of CD34+/Flk-1+ cells in the bone marrow” value in experiment [4] is recorded as “reduced the number of CD34^+/Flk-1^+ cells in the bone marrow”. Also, the “tumor growth (tumor size)” value in experiment [5] (21-day follow-up, control 1.21) is 0.85 cm^3. The “advanced tumor growth (FIG. 5)” value in experiment [5] (Lewis Lung tumor model) is “significantly less tumor growth”. The “capillary density of tumor tissue” value in experiment [5] (subcutaneous tumor, control 0.82) is on record as 0.56 capillaries/mm^2. The “systemic levels of VEGF” value in experiment [6] (Lewis lung cancer model, control 152.2) is 78.7 pg/mL. The compound also registered a tumor volume in experiment [6] (orthotopic, after 17 days, control 0.62) of 0.45 cm^3. The tumor vascularization in experiment [6] (orthotopic, control 1.56) is recorded as 0.98 capillaries/mm^2. The “cells positive for Annexin V” value in experiment [7] (10^−6 M during hypoxia, control 13%) is 12%. For the same compound, the “percentage of cells undergoing apoptosis during hypoxia” value in experiment [7] (increasing concentrations, flow cytometry, versus control group) was “no difference was observed”. Further, the “number of Lewis lung cancer cells (direct anti-proliferative effect)” value in experiment [7] (up to 48 hours of treatment) is on record as “did not observe a significant change”.

Values taken from patent US7652038B2, “Methods of reducing angiogenesis” (The Board of Trustees of the Leland Stanford Jr. University, priority 2002, dated 2010).
